{
  "source": "patent US6451807B1",
  "about": "“Methods of treating sexual dysfunction in an individual suffering from a retinal disease, class 1 congestive heart failure, or myocardial infarction using a PDE5 inhibitor” (Lilly Icos, LLC., priority 1999, dated 2002)",
  "key": {"[1]": {"biological_target": "T1, PDE1c (Homo sapiens, UniProt Q14123)", "T1 construct": "made in house; host or cells: Spodoptera frugiperda Sf9 cells", "T1 sequence (Q14123 whole entry, species assumed)": "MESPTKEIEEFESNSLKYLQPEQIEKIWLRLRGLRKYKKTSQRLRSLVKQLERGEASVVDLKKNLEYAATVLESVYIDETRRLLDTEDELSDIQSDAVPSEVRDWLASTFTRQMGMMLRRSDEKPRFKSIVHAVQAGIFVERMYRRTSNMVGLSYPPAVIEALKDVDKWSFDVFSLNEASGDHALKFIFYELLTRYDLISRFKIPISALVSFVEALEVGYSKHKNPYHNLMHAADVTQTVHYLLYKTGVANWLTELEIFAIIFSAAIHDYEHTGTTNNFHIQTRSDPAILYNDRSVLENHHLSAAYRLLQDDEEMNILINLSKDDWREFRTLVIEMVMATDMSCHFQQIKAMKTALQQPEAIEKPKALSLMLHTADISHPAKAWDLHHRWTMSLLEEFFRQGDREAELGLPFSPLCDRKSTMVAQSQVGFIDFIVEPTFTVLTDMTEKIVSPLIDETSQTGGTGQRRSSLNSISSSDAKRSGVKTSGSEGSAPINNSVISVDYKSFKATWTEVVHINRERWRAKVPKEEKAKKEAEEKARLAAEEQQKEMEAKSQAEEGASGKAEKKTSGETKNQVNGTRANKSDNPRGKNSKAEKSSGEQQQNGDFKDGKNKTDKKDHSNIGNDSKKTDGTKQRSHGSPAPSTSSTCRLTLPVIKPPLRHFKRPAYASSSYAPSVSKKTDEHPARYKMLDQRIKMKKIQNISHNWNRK", "test": "PDE1c enzyme inhibition, IC50 determination", "format": "biochemical", "details": "read-out: IC50 against PDE1c", "procedure": "Cell pellets (5g) were thawed on ice with 20 ml of Lysis Buffer (50 mM MOPS pH 7.4, 10 μM ZnSO4, 0.1 mM CaCl2, 1 mM DTT, 2 mM benzamidine HCl, 5μg/ml each of pepstatin, leupeptin, and aprotenin). Cells were lysed by passage through a French pressure cell (SLM-Aminco) while temperatures were maintained below 10° C. The resultant cell homogenate was centrifuged at 36,000 rpm at 4° C. for 45 minutes in a Beckman ultracentrifuge using a Type TI45 rotor. The supernatant was discarded and the resultant pellet was resuspended with 40 ml of Solubilization Buffer (Lysis Buffer containing 1M NaCl, 0.1M MgCl2, 1 mM CaCl2, 20 μg/ml calmodulin, and 1% Sulfobetaine SB12 (Z3-12) by sonicating using a VibraCell tuner with a microtip for 3×30 seconds. This was performed in a crushed ice/salt mix for cooling. Following sonication, the mixture was slowly mixed for 30 minutes at 4° C. to finish solubilizing membrane bound proteins. This mixture was centrifuged in a Beckman ultracentrifuge using a type TI45 rotor at 36,000 rpm for 45 minutes. The supernatant was diluted with Lysis Buffer containing 10 μg/ml calpain inhibitor I and II. The precipitated protein was centrifuged for 20 minutes at 9,000 rpm in a Beckman JA-10 rotor. The recovered supernatant then was subjected to Mimetic Blue AP Agarose Chromatography. […]"}, "[2]": {"test_system": "healthy male volunteers", "test": "Clinical pharmacology drug interaction study with short-acting nitrates (Example 5)", "format": "in vivo, human", "procedure": "This study was a randomized, double-blind, placebo-controlled, two-way crossover design clinical pharmacology drug interaction study that evaluated the hemodynamic effects of concomitant administration of a selective PDE5 inhibitor Study Drug (i.e., the compound of structural formula (I)) and short-acting nitrates on healthy male volunteers. In this study, the subjects received either the Study Drug at a dose of 10 mg or a placebo, daily for seven days. On the sixth or seventh day, the subjects received sublingual nitroglycerin (0.4 mg) while supine on a tilt table. The nitroglycerin was administered 3 hours after Study Drug dosing, and all subjects kept the nitroglycerin tablet under their tongue until it completely dissolved. The subjects were tilted to 70° head-up every 5 minutes for a total of 30 minutes with measurement of blood pressure and heart rate. There were no discontinuations among the twenty-two healthy male subjects (ages 19 to 60 years old) that entered this study."}, "[3]": {"test_system": "clinical study subjects", "test": "Combined clinical studies, treatment-emergent adverse events", "format": "in vivo, human", "source_text": "However, it also was observed from the combined clinical studies that the percent of treatment-emergent adverse events increased with an increasing unit dose of the compound of structural formula (I), as illustrated in the following table."}, "[4]": {"details": "10 mg daily for seven days, sublingual nitroglycerin 0.4 mg, preliminary analysis"}, "[5]": {"details": "10 mg daily for seven days, preliminary analysis"}, "[6]": {"details": "unit dose of about 1 to about 20 mg"}},
  "data": [
    {"molecule": "CN1CC(=O)N2[C@H](c3ccc4c(c3)OCO4)c3[nH]c4ccccc4c3C[C@@H]2C1=O", "note": "[Compound 5, (6R-trans)-6-(1,3-benzodioxol-5-yl)-2,3,6,7,12,12a-hexahydro-2-methylpyrazino[1′,2′:1,6]pyrido[3,4-b]indole-1,4-dione]", "values": [
      {"measurement": "IC50", "setting": "[1]", "result": 10, "unit": "µM"},
      {"measurement": "serious adverse events", "setting": "[2]; [4]", "result": "no serious adverse events"},
      {"measurement": "tolerability", "setting": "[2]; [4]", "result": "well tolerated"},
      {"measurement": "changes in laboratory safety assessments or 12-lead ECGs", "setting": "[2]; [5]", "result": "no Study Drug-associated changes in laboratory safety assessments or 12-lead ECGs"},
      {"measurement": "most common adverse events", "setting": "[2]; [5]", "result": "headache, dyspepsia, and back pain"},
      {"measurement": "effects on mean systolic blood pressure and on mean maximal nitroglycerin-induced decrease in systolic blood pressure", "setting": "[2]; 10 mg daily, nitroglycerin 0.4 mg 3 hours after dosing, tilt table", "result": "minimal effects"},
      {"measurement": "impact on systolic blood pressure", "setting": "[2]; human clinical studies, administered in conjunction with organic nitrates", "result": "minimal impact on systolic blood pressure"},
      {"measurement": "Treatment-Emergent Adverse Events (%): Back Pain", "setting": "[3]; unit dose 2 mg", "result": 3, "unit": "%"},
      {"measurement": "Treatment-Emergent Adverse Events (%): Conjunctivitis", "setting": "[3]; unit dose 2 mg", "result": 0, "unit": "%"},
      {"measurement": "Treatment-Emergent Adverse Events (%): Dyspepsia", "setting": "[3]; unit dose 2 mg", "result": 3, "unit": "%"},
      {"measurement": "Treatment-Emergent Adverse Events (%): Eyelid Edema", "setting": "[3]; unit dose 2 mg", "result": 0, "unit": "%"},
      {"measurement": "Treatment-Emergent Adverse Events (%): Flushing", "setting": "[3]; unit dose 2 mg", "result": 0, "unit": "%"},
      {"measurement": "Treatment-Emergent Adverse Events (%): Headache", "setting": "[3]; unit dose 2 mg", "result": 12, "unit": "%"},
      {"measurement": "Treatment-Emergent Adverse Events (%): Myalgia", "setting": "[3]; unit dose 2 mg", "result": 0, "unit": "%"},
      {"measurement": "Treatment-Emergent Adverse Events (%): Rhinitis", "setting": "[3]; unit dose 2 mg", "result": 7, "unit": "%"},
      {"measurement": "Treatment-Emergent Adverse Events (%): Vision Abnormalities", "setting": "[3]; unit dose 2 mg", "result": 0, "unit": "%"},
      {"measurement": "Treatment-Emergent Adverse Events (%): Back Pain", "setting": "[3]; unit dose 5 mg", "result": 3, "unit": "%"},
      {"measurement": "Treatment-Emergent Adverse Events (%): Conjunctivitis", "setting": "[3]; unit dose 5 mg", "result": 1, "unit": "%"},
      {"measurement": "Treatment-Emergent Adverse Events (%): Dyspepsia", "setting": "[3]; unit dose 5 mg", "result": 14, "unit": "%"},
      {"measurement": "Treatment-Emergent Adverse Events (%): Eyelid Edema", "setting": "[3]; unit dose 5 mg", "result": 0, "unit": "%"},
      {"measurement": "Treatment-Emergent Adverse Events (%): Flushing", "setting": "[3]; unit dose 5 mg", "result": 0, "unit": "%"},
      {"measurement": "Treatment-Emergent Adverse Events (%): Headache", "setting": "[3]; unit dose 5 mg", "result": 10, "unit": "%"},
      {"measurement": "Treatment-Emergent Adverse Events (%): Myalgia", "setting": "[3]; unit dose 5 mg", "result": 3, "unit": "%"},
      {"measurement": "Treatment-Emergent Adverse Events (%): Rhinitis", "setting": "[3]; unit dose 5 mg", "result": 3, "unit": "%"},
      {"measurement": "Treatment-Emergent Adverse Events (%): Vision Abnormalities", "setting": "[3]; unit dose 5 mg", "result": 0, "unit": "%"},
      {"measurement": "Treatment-Emergent Adverse Events (%): Back Pain", "setting": "[3]; unit dose 10 mg", "result": 15, "unit": "%"},
      {"measurement": "Treatment-Emergent Adverse Events (%): Conjunctivitis", "setting": "[3]; unit dose 10 mg", "result": 1, "unit": "%"},
      {"measurement": "Treatment-Emergent Adverse Events (%): Dyspepsia", "setting": "[3]; unit dose 10 mg", "result": 13, "unit": "%"},
      {"measurement": "Treatment-Emergent Adverse Events (%): Eyelid Edema", "setting": "[3]; unit dose 10 mg", "result": 1, "unit": "%"},
      {"measurement": "Treatment-Emergent Adverse Events (%): Flushing", "setting": "[3]; unit dose 10 mg", "result": "<1", "unit": "%"},
      {"measurement": "Treatment-Emergent Adverse Events (%): Headache", "setting": "[3]; unit dose 10 mg", "result": 23, "unit": "%"},
      {"measurement": "Treatment-Emergent Adverse Events (%): Myalgia", "setting": "[3]; unit dose 10 mg", "result": 9, "unit": "%"},
      {"measurement": "Treatment-Emergent Adverse Events (%): Rhinitis", "setting": "[3]; unit dose 10 mg", "result": 4, "unit": "%"},
      {"measurement": "Treatment-Emergent Adverse Events (%): Vision Abnormalities", "setting": "[3]; unit dose 10 mg", "result": 0, "unit": "%"},
      {"measurement": "Treatment-Emergent Adverse Events (%): Back Pain", "setting": "[3]; unit dose 25 mg", "result": 18, "unit": "%"},
      {"measurement": "Treatment-Emergent Adverse Events (%): Conjunctivitis", "setting": "[3]; unit dose 25 mg", "result": 0, "unit": "%"},
      {"measurement": "Treatment-Emergent Adverse Events (%): Dyspepsia", "setting": "[3]; unit dose 25 mg", "result": 19, "unit": "%"},
      {"measurement": "Treatment-Emergent Adverse Events (%): Eyelid Edema", "setting": "[3]; unit dose 25 mg", "result": 1, "unit": "%"},
      {"measurement": "Treatment-Emergent Adverse Events (%): Flushing", "setting": "[3]; unit dose 25 mg", "result": 0, "unit": "%"},
      {"measurement": "Treatment-Emergent Adverse Events (%): Headache", "setting": "[3]; unit dose 25 mg", "result": 29, "unit": "%"},
      {"measurement": "Treatment-Emergent Adverse Events (%): Myalgia", "setting": "[3]; unit dose 25 mg", "result": 16, "unit": "%"},
      {"measurement": "Treatment-Emergent Adverse Events (%): Rhinitis", "setting": "[3]; unit dose 25 mg", "result": 4, "unit": "%"},
      {"measurement": "Treatment-Emergent Adverse Events (%): Vision Abnormalities", "setting": "[3]; unit dose 25 mg", "result": 0, "unit": "%"},
      {"measurement": "Treatment-Emergent Adverse Events (%): Back Pain", "setting": "[3]; unit dose 50 mg", "result": 24, "unit": "%"},
      {"measurement": "Treatment-Emergent Adverse Events (%): Conjunctivitis", "setting": "[3]; unit dose 50 mg", "result": 2, "unit": "%"},
      {"measurement": "Treatment-Emergent Adverse Events (%): Dyspepsia", "setting": "[3]; unit dose 50 mg", "result": 20, "unit": "%"},
      {"measurement": "Treatment-Emergent Adverse Events (%): Eyelid Edema", "setting": "[3]; unit dose 50 mg", "result": 2, "unit": "%"},
      {"measurement": "Treatment-Emergent Adverse Events (%): Flushing", "setting": "[3]; unit dose 50 mg", "result": 3, "unit": "%"},
      {"measurement": "Treatment-Emergent Adverse Events (%): Headache", "setting": "[3]; unit dose 50 mg", "result": 34, "unit": "%"},
      {"measurement": "Treatment-Emergent Adverse Events (%): Myalgia", "setting": "[3]; unit dose 50 mg", "result": 20, "unit": "%"},
      {"measurement": "Treatment-Emergent Adverse Events (%): Rhinitis", "setting": "[3]; unit dose 50 mg", "result": 0, "unit": "%"},
      {"measurement": "Treatment-Emergent Adverse Events (%): Vision Abnormalities", "setting": "[3]; unit dose 50 mg", "result": 0, "unit": "%"},
      {"measurement": "Treatment-Emergent Adverse Events (%): Back Pain", "setting": "[3]; unit dose 100 mg", "result": 22, "unit": "%"},
      {"measurement": "Treatment-Emergent Adverse Events (%): Conjunctivitis", "setting": "[3]; unit dose 100 mg", "result": 5, "unit": "%"},
      {"measurement": "Treatment-Emergent Adverse Events (%): Dyspepsia", "setting": "[3]; unit dose 100 mg", "result": 25, "unit": "%"},
      {"measurement": "Treatment-Emergent Adverse Events (%): Eyelid Edema", "setting": "[3]; unit dose 100 mg", "result": 3, "unit": "%"},
      {"measurement": "Treatment-Emergent Adverse Events (%): Flushing", "setting": "[3]; unit dose 100 mg", "result": 7, "unit": "%"},
      {"measurement": "Treatment-Emergent Adverse Events (%): Headache", "setting": "[3]; unit dose 100 mg", "result": 46, "unit": "%"},
      {"measurement": "Treatment-Emergent Adverse Events (%): Myalgia", "setting": "[3]; unit dose 100 mg", "result": 29, "unit": "%"},
      {"measurement": "Treatment-Emergent Adverse Events (%): Rhinitis", "setting": "[3]; unit dose 100 mg", "result": 2, "unit": "%"},
      {"measurement": "Treatment-Emergent Adverse Events (%): Vision Abnormalities", "setting": "[3]; unit dose 100 mg", "result": 0, "unit": "%"},
      {"measurement": "flushing", "setting": "[3]; [6]", "result": "flushing was essentially eliminated"},
      {"measurement": "vision abnormalities", "setting": "[3]; [6]", "result": "no vision abnormalities were reported"}
    ]}
  ]
}
